Source: patent publication US4749782A, “Vasopressin compounds” (Smithkline Beckman Corporation, priority 1986, dated 1988)

target: T1, V2 -vasopressin receptors (Rattus norvegicus, UniProt Q00788); assay: in vivo diuretic activity in the hydropenic rat; settings: measure of V2 antagonism
T1 construct: from tissue; host or cells: whole animal (hydropenic rat)
Experimental: Antagonistic activity at the V2 -vasopressin receptors is determined in a protocol which determines in vivo diuretic activity in the hydropenic rat (ED300 μg/kg). This procedure is described in the literature: F. Stassen et al., 1st International Conference on Diuretics, Miami, FL., March (1984).

T1 sequence (Q00788 whole entry): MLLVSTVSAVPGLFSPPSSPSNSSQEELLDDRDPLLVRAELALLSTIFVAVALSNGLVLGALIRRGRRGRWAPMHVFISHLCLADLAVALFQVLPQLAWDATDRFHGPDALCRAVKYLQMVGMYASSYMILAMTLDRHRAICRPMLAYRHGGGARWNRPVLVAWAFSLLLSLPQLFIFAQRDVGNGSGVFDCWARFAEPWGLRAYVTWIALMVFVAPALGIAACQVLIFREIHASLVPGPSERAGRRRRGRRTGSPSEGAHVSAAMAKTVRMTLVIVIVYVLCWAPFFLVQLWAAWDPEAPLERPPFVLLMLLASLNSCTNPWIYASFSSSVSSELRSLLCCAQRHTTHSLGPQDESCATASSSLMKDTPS

Point of comparison: “[1-(β,β-diethyl-β-mercaptopropionic acid)-2-(O-ethyl-L-tyrosine)-4-valine-8-arginine] vasopressin [Compound C]”, ED300 0.1205 mg/kg. Against it:
- [1-(β,β-diethyl β-mercaptopropionic acid)-2-(O-ethyl-D-tyrosine)-4-valine-8-arginine-9-desglycine]-vasopressin [Compound B] — 10-fold lower, 0.0119 mg/kg
- [1-(β,β-dimethyl-β-mercaptopropionic acid)-2-(O-ethyl-D-tyrosine)-4-valine-8-arginine]vasopressin [Compound D, reference compound] — 41-fold higher, 4.95 mg/kg
